Assay: Photostability of the fluorescence signal
Assay type: physicochemical
Conditions: 1:1 methanol:water; Karl Storz Xenon 175 light source at 100% intensity for 30 min; fraction of dark control
Experimental: In a further example the photostability of the fluorescence signal was measured. The photostability of Compound 3 (the fluorinated Cy3F pyrylium of Example 19) was studied in comparison with a non-fluorinated analogue, Cy3 pyrylium (Compound C)
The dyes were dissolved in a 1:1 mixture of methanol:water to give an absorbance reading of 1Au at the dyes lambda max and then diluted 20 times for fluorescence measurements. The samples were exposed to light with a Karl Storz Xenon 175 light source at 100% intensity for 30 min. The cuvette was kept in a water bath while exposed to light, to avoid heating. Fluorescence measurements were made on Cary Eclipse (Varian) fluorescence spectrophotometer 1 cm cuvette, ex/em slit 5 nm

| Compound | max fluorescence intensity relative to the dark control (photostability) |
| --- | --- |
| CN(C)c1ccc2c(c1)OC(C(C)(C)C)=C/C2=C\C=C\C1=[N+](CCCCCC(=O)O)c2ccc(S(=O)(=O)[O-])cc2C1(C)C [Compound C] | 0.79 |
| CN(C)c1ccc2c(c1)OC(C(C)(C)C)=C/C2=C\C=C\C1=[N+](CCCCCC(=O)O)c2c(F)c(F)c(F)c(F)c2C1(C)CCCCS(=O)(=O)[O-] (centres unmarked) [Compound 3, 4-[2-{(1E,3E)-3-[2-tert-butyl-7-(dimethylamino)-4H-chromen-4-ylidene]prop-1-enyl}-1-(5-carboxypentyl)-4,5,6,7-tetrafluoro-3-methyl-3H-indolium-3-yl]butane-1-sulfonate] | 0.94 |

— patent US20090252687A1, “ASYMMETRIC FLUORO-SUBSTITUTED POLYMETHINE DYES” (priority 2006, published 2009)
